Reference: ChEMBL document CHEMBL5107975, “HIV nucleoside reverse transcriptase inhibitors” (Eur J Med Chem, 2022)

What was measured:
[1] = Elimination half life in human administered po; type: ADME; conditions: read-out: LambdaZ (converted)
[2] = Drug elimination in human urine assessed as unchanged drug administered po relative to control; type: ADME, organism-based; conditions: read-out: Drug excretion
[3] = system: Human immunodeficiency virus 1; assay: Antiviral activity against HIV-1; type: functional, organism-based
[4] = Oral bioavailability in human relative to control; type: ADME, organism-based; conditions: in vivo

| half-life [1] [h] | dose excreted [2] [%] | EC50 [3] [nM] | bioavailability [4] [%] | Structure (SMILES) |
| --- | --- | --- | --- | --- |
| 128 | 62 | > 1000 | 100 | C=C1[C@H](CO)[C@@H](O)C[C@@H]1n1cnc2c(=O)[nH]c(N)nc21.O [ENTECAVIR] |
| – | – | 2 | – | Nc1ccn([C@@H]2CS[C@H](CO)O2)c(=O)n1 [LAMIVUDINE] |
